Laboratory results from patent US20090023753A1, “1,3-Thiazole-5-Carboxamides Useful as Cancer Chemotherapeutic Agents” (Bayer HealthCare AG, priority 2005, published 2009).
pIC50: −log10 of the molar value.

Legend:
[1] = target: T1, Flk-1 (murine VEGFR-2) kinase domain (Mus musculus, UniProt P35918); assay: Flk-1 (murine VEGFR-2) Biochemical Assay (TR-FRET); settings: 10 μM ATP, 7 nM Flk-1 (kinase domain)
T1 construct: 7 nM Flk-1 (kinase domain)

[2] = test system: P-AKT/PKB in H209 small cell lung carcinoma cells; assay: P-AKT/PKB Cytoblot Assay with H209 cells (SCF-stimulated); type: cell-based; settings: Homo sapiens, NCI-H209, 1 hour compound incubation, SCF 25 ng/mL for 5 minutes, p-(S473) AKT
Source text: The utility of the compounds of the present invention can be illustrated, for example, by their activity in the P-AKT/PKB Cytoblot Assay described below. The involvement of the P-AKT/PKB[PI3K/AKt] pathway as a target for cancer chemotherapy has been recognized in the art. For example, see F. Chang et al, Involvement of PI3K/Akt pathway in cell cycle progression, apoptosis, and neoplastic transformation: a target for cancer chemotherapy, Leukemia, 2003, 17: p. 590-603; K. A. West et al, Activation of the PI3K/Akt pathway and chemotherapeutic resistance, Drug Resistance Updates, 2002, 5: p. 234-248; and P. Sen et al, Involvement of the Akt/PKB signaling pathway with disease processes, Molecular and Cellular Biochemistry, 2003, 253: p. 241-246.
P-AKT/PKB Cytoblot Assay Protocol with H209 Cells
H209 small cell lung carcinoma cells in log phase were plated at 50,000 cells/well in 96-well poly-lysine coated, clear bottom/black-sided plates (Becton-Dickinson, USA Cat # 354640) in 100 Ill RPMI medium containing 0.1% (w/v) BSA, and incubated overnight at 37° C. in 5% CO2 incubator. The following day, compounds (10 mM stock solutions in DMSO) were added to the plates to generate final concentrations of 0.0, 0.01, 0.03, 0.1, 0.3, 1.0, 3.0 and 10 μM for IC50 determinations and incubated for 1 hour at 37° C. Cells were then left untreated or stimulated with Stem Cell Factor (SCF: Biosource Cat # PHC2116) at a final concentration of 25 ng/mL for 5 minutes at 37° C. in 5% CO2 incubator. The media was then removed using a vacuum manifold and the cells were washed once with Tris Buffered Saline (TBS). Cells were then fixed by adding 200 μl of cold 3.7% (v/v) formaldehyde in TBS to each well for 15 minutes at 4° C. After removal of the formaldehyde, the cells were treated with the addition of 50 μl of methanol (at −20° C.) to each well for 5 minutes. After removal of the methanol, 200 μl of 1% (w/v) BSA in TBS was added to each well to block non-specific antibody binding sites and the plate was incubated at room temperature for 30 minutes.
After removal of the blocking buffer, 50 μl of p-(S473) AKT rabbit polyclonal antibody (Cell Signaling, USA Cat # 9277S) was added at a dilution of 1:250 in 0.1% (w/v) BSA in TBS, and the plate was incubated at room temperature for 1 hour. Plates were then washed 3 times with cold TBS containing 0.05% (v/v) Tween 20 (TBS-T) and 100 μl of Horseradish peroxidase (HRP)-conjugated goat-anti-rabbit antibody (Amersham, USA Cat # NA934V) at a dilution of 1:250 in TBS-T was added and the plate was incubated at room temperature for 1 h. After washing with ice-cold TBS-T four times, 100 μl of Enhanced Chemiluminescence (ECL) reagent (Amersham, USA Cat# RPN2209) was added to each well and mixed on a mini-orbital shaker for 1 min. The plate was then read on a Perkin Elmer Victor 5 Multilabel Counter (#1420-0421).

T1 sequence (P35918 832-1160 limits assumed): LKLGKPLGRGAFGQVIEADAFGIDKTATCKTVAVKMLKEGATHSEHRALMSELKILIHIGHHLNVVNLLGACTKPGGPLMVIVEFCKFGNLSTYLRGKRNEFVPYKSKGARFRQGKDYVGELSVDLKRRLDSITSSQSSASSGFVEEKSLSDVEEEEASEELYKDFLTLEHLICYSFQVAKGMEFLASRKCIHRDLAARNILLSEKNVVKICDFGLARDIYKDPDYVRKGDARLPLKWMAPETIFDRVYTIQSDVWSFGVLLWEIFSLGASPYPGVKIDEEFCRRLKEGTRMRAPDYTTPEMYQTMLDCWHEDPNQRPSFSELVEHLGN

| SMILES | pIC50 [1] | pIC50 [2] |
| --- | --- | --- |
| NC(=O)c1cc(CNc2ncsc2C(=O)Nc2ccc3c(c2)OC(F)(F)O3)ccn1 [Example 3, 4-{[(5-{[(2,2-difluoro-1,3-benzodioxol-5-yl)amino]carbonyl}-1,3-thiazol-4-yl)amino]methyl}pyridine-2-carboxamide] | > 6.30 | > 6.30 |
| O=C(NCCCCN1CCCC1)c1cc(CNc2ncsc2C(=O)Nc2ccc3c(c2)OC(F)(F)O3)ccn1 [Example 5, 4-{[(5-{[(2,2-difluoro-1,3-benzodioxol-5-yl)amino]carbonyl}-1,3-thiazol-4-yl)amino]methyl}-N-(4-pyrrolidin-1-ylbutyl)pyridine-2-carboxamide] | > 6.30 | – |
| CS(=O)(=O)Nc1cc(CNc2ncsc2C(=O)Nc2ccc3c(c2)OC(F)(F)C(F)(F)O3)ccn1 [Example 12, 4-[({2-[(methylsulfonyl)amino]pyridin-4-yl}methyl)amino]-N-(2,2,3,3-tetrafluoro-2,3-dihydro-1,4-benzodioxin-6-yl)-1,3-thiazole-5-carboxamide] | > 6.30 | > 6.30 |
| Nc1cc(CNc2ncsc2C(=O)Nc2ccc3c(c2)OC(F)(F)C(F)(F)O3)ccn1 [Example 16, 4-{[(2-aminopyridin-4-yl)methyl]amino}-N-(2,2,3,3-tetrafluoro-2,3-dihydro-1,4-benzodioxin-6-yl)-1,3-thiazole-5-carboxamide] | > 6.30 | > 6.30 |

Continued, values first:

| pIC50 [1] | pIC50 [2] | SMILES |
| --- | --- | --- |
| > 6.30 | > 6.30 | CN(C)CCCCNC(=O)c1cc(CNc2ncsc2C(=O)Nc2ccc3c(c2)OC(F)(F)O3)ccn1 [Example 6, 4-{[(5-{[(2,2-difluoro-1,3-benzodioxol-5-yl)amino]carbonyl}-1,3-thiazol-4-yl)amino]methyl}-N-[4-(dimethylamino)butyl]pyridine-2-carboxamide] |
| – | > 6.30 | Nc1cc(CNc2ncsc2C(=O)Nc2ccc3c(c2)OC(F)(F)O3)ccn1 [Example 15, 4-{[(2-aminopyridin-4-yl)methyl]amino}-N-(2,2-difluoro-1,3-benzodioxol-5-yl)-1,3-thiazole-5-carboxamide] |
